Target: T1, mouse TLR9 (Mus musculus, UniProt Q9EQU3)
T1 construct: Balb/c mice (Charles River); host or cells: Balb/c mice, in vivo
T1 sequence (Q9EQU3 26-1032): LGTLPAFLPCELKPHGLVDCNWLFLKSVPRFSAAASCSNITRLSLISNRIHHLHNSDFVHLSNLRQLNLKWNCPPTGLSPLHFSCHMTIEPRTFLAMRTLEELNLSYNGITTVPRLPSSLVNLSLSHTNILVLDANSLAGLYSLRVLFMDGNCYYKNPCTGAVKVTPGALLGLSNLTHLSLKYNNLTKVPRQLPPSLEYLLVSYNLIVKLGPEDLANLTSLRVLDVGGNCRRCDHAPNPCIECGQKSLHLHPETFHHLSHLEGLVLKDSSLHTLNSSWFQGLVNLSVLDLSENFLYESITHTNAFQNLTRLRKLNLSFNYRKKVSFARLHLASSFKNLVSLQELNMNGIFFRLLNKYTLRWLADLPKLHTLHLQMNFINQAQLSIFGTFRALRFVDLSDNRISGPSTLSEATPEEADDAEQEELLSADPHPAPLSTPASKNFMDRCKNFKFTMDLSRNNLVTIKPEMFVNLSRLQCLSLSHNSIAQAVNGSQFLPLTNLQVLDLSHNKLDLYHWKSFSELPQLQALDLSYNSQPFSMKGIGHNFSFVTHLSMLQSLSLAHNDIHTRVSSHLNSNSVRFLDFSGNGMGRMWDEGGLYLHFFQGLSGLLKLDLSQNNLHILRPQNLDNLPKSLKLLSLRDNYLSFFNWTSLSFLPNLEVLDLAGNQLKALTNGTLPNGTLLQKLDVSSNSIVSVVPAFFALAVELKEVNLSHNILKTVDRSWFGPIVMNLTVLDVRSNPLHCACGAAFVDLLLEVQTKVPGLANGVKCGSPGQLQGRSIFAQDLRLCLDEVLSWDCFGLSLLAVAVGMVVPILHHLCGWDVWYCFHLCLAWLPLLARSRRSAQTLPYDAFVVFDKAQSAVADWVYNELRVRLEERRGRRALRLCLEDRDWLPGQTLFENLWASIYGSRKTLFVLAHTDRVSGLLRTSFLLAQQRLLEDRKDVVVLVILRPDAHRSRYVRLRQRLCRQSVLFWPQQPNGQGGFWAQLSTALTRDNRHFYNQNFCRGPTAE
Assay: Inhibition of mouse TLR9 in mouse acute challenge model (serum IL-12)
Type: in vivo
Conditions: 5 mg/Kg, intravenous or intra-peritoneal, serum IL-12 four hours after CpG DNA agonist
Experimental: Example B4—Inhibition of Mouse TLR9 in Mouse Acute Challenge Model
When administered a CpG-containing DNA oligonucleotide, mice respond in an acute manner with release of cytokines into the peripheral blood within 6 hours. The addition of an inhibitor against TLR9 will attenuate the response to the DNA oligonucleotide agonist, which can be measured through a reduction in serum cytokines.
Balb/c mice (Charles River). TLR9 agonist 1018 ISS, CpG-containing DNA oligonucleotide. Mouse interleukin (IL)-12p40 ELISA kit (BD Pharmingen Cat. No. 551219 and 554476).
Mice were injected by the intravenous or intra-peritoneal routes with test compound at 5 mg/kg. Following injection of test compound, mice were injected with a TLR9 agonist (a CpG-containing DNA oligonucleotide) by the intra-peritoneal route to a final dose of approximately 2.5 mg/kg. Four hours following administration of the DNA oligonucleotide, blood was collected and processed to serum. The serum was tested for the presence of IL-12 using an ELISA kit. The amount of IL-12 produced is a reflection of the amount of TLR9-dependent receptor activity.

SMILES: Cc1ccc(-n2nc3c(N4CCC(C(=O)NCCCN(C)C)CC4)nnc(C)c3c2C)cc1 [Compound No. 5, 1-(3,4-dimethyl-2-(p-tolyl)-2H-pyrazolo[3,4-d]pyridazin-7-yl)-N-(3-(dimethylamino)propyl)piperidine-4-carboxamide]
- inhibition of TLR9 activity in mice (FIG. 1): inhibition of TLR9 activity

From US11370794B2, “Toll-like receptor antagonist compounds and methods of use” (Dynavax Technologies Corporation, priority 2016, dated 2022)
